Experimental data: US10814021B2, “Paramagnetic boron-doped graphene quantum dots and their application for safe magnetic resonance imaging” (priority 2017, dated 2020)
Entries after “also recorded” stand apart in the source; their conditions may differ.

Experiments:
C57BL/6 wild-type mice [1] = assay: In vivo abdominal T1-weighted MR imaging, SL-BGQDs vs Gd-DTPA
Source text: T1-weighted MR images of the cross-sectional views of mice centered within the abdomen were acquired before and after contrast agent injection.
(§1) Mice were anesthetized with isoflurane (Piramal Healthcare) and secured in a coil-integrated respiratory monitoring system (SA Instruments; MR-compatible small animal monitoring and gating system) with nose-cone for oxygen/anesthetic, ear-bar head holder, circulating temperature control bath, and residual gas extraction. Abdominal scans were acquired using rapid acquisition with refocused echoes (RARE) T1-weighted (TR/TE=691/5.5 ms, in-plane resolution 93×62 μm^2, matrix 256×284) sequences and slices placed in the transverse plane with 0.5 mm slice thickness and 0.75 mm interslice gaps allowing for coverage from the liver to the pelvic floor. Cranial scans were acquired over the entire head with a 3-dimensional, T1-weighted fast low angle shot (FLASH) scan sequence (TR/TE=16.2/2.7 ms, resolution 106×108×152 μm^3, matrix 284×186×132). Images from this cranial scan sequence were processed using a maximum intensity projection with a 3 mm slab thickness.

[2] = comparison values quoted in text; field not stated; cited from earlier work
C57BL/6 wild-type mice [3] = assay: In vivo cranial T1-weighted MR imaging (neurovasculature), SL-BGQDs vs Gd-DTPA; conditions: 10 min after i.v. 200 μL, 5 mg mL^−1
Source text: as §1

[4] = In vitro MR imaging (T1/T2 relaxivity) of SL-BGQDs and Gd-DTPA in PBS at 14 T; format: physicochemical; conditions: SL-BGQDs per boron molar concentration
Protocol: To evaluate the applicability of using SL-BGQDs as contrast agents for MR imaging, quantitative T1 and T1-weighted MR imaging scan sequences were acquired of SL-BGQD samples in PBS at magnetic field strength of 14T. […] 1/T1 was then plotted against the boron molar concentration in SL-BGQDs (FIG. 13D).
T1- and T2-weighted imaging and quantitative T1 and T2 MR imaging scan sequences were used to investigate the contrast enhancing capabilities of SL-BGQDs. MR imaging was conducted on a Bruker Avance III 600 MHz, 14 T wide bore spectrometer. […] The vials were fixed in place inside a water reservoir; the water served as a homogeneous background signal to minimize magnetic susceptibility variations near samples. The secured vials were placed in a 25 mm single-channel ^1H radiofrequency receiving coil (PB Micro 2.5). […] Quantitative T2 values were measured using a multi-spin multi-echo (MSME) pulse sequence with TR=2500 ms, TE=6.7+6n ms (n=0-16), and 78×156 μm^2 in-plane resolution with 0.5 mm slice thickness for 14 slices. T1-weighted images were acquired with a RARE pulse sequence with TE=5.49 ms, TR=531 ms, 78×52 μm^2 in-plane resolution and 0.5 mm slice thickness for 10 slices. […] T1 values were determined within a circular, 100-voxel region of interest.

## O=C([O-])CN(CCN(CC(=O)[O-])CC(=O)O)CCN(CC(=O)[O-])CC(=O)O.[Gd+3] [Gd-DTPA, gadolinium diethylene penta-acetic acid]
C57BL/6 wild-type mice [1]; 60 min post-injection, i.v. 200 μL, 1 mg mL^−1
  T1-weighted contrast enhancement in any organ at 60 min post-injection: completely nullified; also recorded: no T1-weighted signal increase was detected
C57BL/6 wild-type mice [1]; i.v. 200 μL, 1 mg mL^−1
  time of peak contrast enhancement post-injection: ≤ 10 min
C57BL/6 wild-type mice [1]; i.v. 200 μL, 1 mg mL^−1, 14 T
  signal enhancement in renal cortex, renal pelvis and gall bladder, post- vs pre-injection: substantial signal enhancement
C57BL/6 wild-type mice [1]; summary statement
  imaging time: about 10 min
[2]
  r1 relaxivity of comparison T1 CAs: 5.39 mM⁻¹ s⁻¹
C57BL/6 wild-type mice [3]
  contrast of cranial vasculature, post- vs pre-injection: no apparent change in contrast
[4]
  longitudinal relaxivity, r1: 4.3 mM⁻¹ s⁻¹
